Assay results published in patent publication US20070274907A1 (priority 2004, published 2007).

Columns and labels:
[1] = Mitomycin binding kinetics to magnetically targetable carrier particle; type: physicochemical; conditions: for initial mitomycin remaining in the binding supernatant: 5 minutes, 25 mg carrier, 0.755 mg/mL mitomycin
Method: Mitomycin binding kinetics was measured at room temperature, and 40° C. […] The mixture was incubated at room temperature and at 40° C. for various time periods up to 60 minutes. The concentration of mitomycin remaining in the binding supernatant was obtained by filtering the sample at a predefined time point and then analyzing by HPLC to determine percentage bound.

swine = experiment: 28 day toxicity study, pulmonary artery delivery with magnetic targeting
Method: Each animal received a single dose of either control or test article at fixed concentrations by pulmonary artery infusion. […] The vehicle control group received 16 mL of vehicle.
A test article was administered as a single infusion to Groups 1 and 2 and as two infusions in all other groups. A 15 minute magnetic retention period separated the two infusions in Groups 3 and 4. The infusion rate was maintained at a flow rate of 2 mL/min. At the end of the 15 minute magnetic retention period, an angiogram was performed to verify arterial patency in the selected lung lobe. Assessment of toxicity following treatment included laboratory tests in which blood samples were collected for evaluation of serum chemistry, hematology and coagulation parameters prior to dosing (Day 0) and post-dosing on Days 1, 3, 7, 14, 21 and 28.

[2] = test system: squamous cell carcinoma of the lung; conditions: 10 mg MMC intra-arterially, after 28 to 48 days, 9 patients; cited from earlier work
bronchogenic carcinoma = conditions: 39 patients; cited from earlier work
[3] = test system: squamous cell carcinoma or adenocarcinoma; conditions: full series of 4 treatments, 10 mg MMC each, bronchial artery; cited from earlier work
[4] = Toxicokinetic analysis of plasma MMC after pulmonary artery infusion

Structure (SMILES): CO[C@@]12[C@H](COC(N)=O)C3=C(C(=O)C(C)=C(N)C3=O)N1C[C@@H]1N[C@@H]12 [MMC, Mitomycin C]
- initial mitomycin remaining in the binding supernatant ([1]; 40° C): 3%
- initial mitomycin remaining in the binding supernatant ([1]; room temperature): 2%
- time to adsorption equilibrium ([1]; both room temperature and 40° C): less than 5 minutes
- stability of mitomycin solution during incubation ([1]; room temperature and 40° C, up to 60 minutes): stable at both temperatures
- stomach ulceration (swine; 28 days post-dosing, not dose-related): stomach ulceration was seen in some animals
- clinical signs (swine; MMC alone group, 4 mg MMC): transient diarrhea in two animals
- embolization (post-treatment angiography) (swine; MMC control, 4 mg MMC): no embolization
- complete remission of the tumor, patients [2]: 2 patients
- partial remission, patients [2]: 2 patients
- neurologic complications (bronchogenic carcinoma): No neurologic complications occurred
- side effects (bronchogenic carcinoma): insignificant
- patients with a 20% to 50% decrease of the tumor area [3]: 3 patients
- patients with a 50% decrease of the tumor area [3]: 5 patients
- Cmax ([4]; Yorkshire, pig, in vivo, 4 mg): 178 ± 27.1 ng/mL
- Vd ([4]; Yorkshire, pig, in vivo, 4 mg): 47.3 ± 13.2 L
- clearance ([4]; Yorkshire, pig, in vivo, 4 mg): 618 ± 54 mL/min
- half-life ([4]; Yorkshire, pig, in vivo, 4 mg, β or λ t1/2, swine, 4 mg MMC): 1.12 ± 0.278 h
- half-life ([4]; Yorkshire, swine, in vivo, distribution half-life, swine, summary over dose groups): ~0.133 h
- half-life ([4]; Yorkshire, swine, in vivo, elimination half-life, swine, summary over dose groups): ~1.08 h
- AUC ([4]; swine, 4 mg MMC, pulmonary artery infusion, plasma MMC): 6507 ± 568 (ng/ml) × min
